What all share (type): physicochemical
The nature of data set [1]: Long term storage stability in glass vials (chemical stability). Particulars: for Puirity (area %) / Total increase (area %): +40° C. From the text: The following tables 2 and 3 show data for the storage stability of crystalline compound of formula I in comparison to amorphous material of formula II. Samples of the compounds of formula I and II were packed into glass vials. Chemical stability was monitored over a period up 28 days under different conditions as indicated at each table.

The nature of data set [2]: Water vapour sorption (DVS), hygroscopicity. Particulars: 80% r.h. (25° C.). Here is the method:
The water sorption experiments were performed with a SPS11-10μ (Projekt Messtechnik). Open aluminium pans were used and the measurements were performed at 25° C. The measured data was evaluated via the software Excel (Microsoft).

The nature of data set [3]: Humidity-resolved XRPD in humidity chamber (phase transitions). Particulars: 25° C. Here is the method: The samples were subjected to a pre-defined humidity program lasting 48 hours in an SMS VGI-2000 chamber at a constant temperature of 25° C. XRPD patterns were collected continuously with a data collection time of between 6 and 11 min. (The amorphous sample was treated with the humidity-program reversed: first rising the humidity to 95%, then lowering it to 0% and rising to 95% again.).

The mark [4] stands for this setting: open glass vials, 75% relative humidity, 7 d.
The mark [5] stands for this setting: open glass vials, 75% relative humidity, 14 d.
Setting [6] is: open glass vials, 75% relative humidity, 28 d.
The mark [7] stands for this setting: open glass vials, 75% relative humidity, Initial.

This is an account of results in US8785608B2, “Crystalline heteroaromatic fluoroglycoside hydrates, pharmaceuticals comprising these compounds and their use” (Sanofi, priority 2009, dated 2014).

For `CC(C)c1[nH]nc(O[C@@H]2O[C@H](CO)[C@@H](F)[C@H](O)[C@H]2O)c1Cc1ccc(CCCC(=O)NC(CO)(CO)CO)cc1` [Amorphous sample, 4-{4-[3-((2S,3R,4R,5S,6R)-5-Fluoro-3,4-dihydroxy-6-hydroxymethyl-tetrahydro-pyran-2-yloxy)-5-isopropyl-1H-pyrazol-4-ylmethyl]-phenyl}-N-(2-hydroxy-1,1-bis-hydroxymethyl-ethyl)-butyramide, reference compound], the “Puirity (area %)” value in data set [1] (closed glass vials, 7 d) is given as 96.5 area %; in data set [1] (closed glass vials, 14 d), 96.1 area %; in data set [1] (closed glass vials, 28 d) it was 95.6 area %; in data set [1] (closed glass vials, Initial) it was 97.0 area %; in data set [1] (setting [4]) it was 96.2 area %; in data set [1] (setting [5]), 95.9 area %. In addition, the “Puirity (area %)” value in data set [1] (setting [6]) is recorded as 95.5 area %; in data set [1] (setting [7]) it was 97.0 area %. The “Total increase (area %)” value in data set [1] (closed glass vials, 7 d) is 0.5 area %; in data set [1] (closed glass vials, 14 d) it was 0.9 area %; in data set [1] (closed glass vials, 28 d), 1.4 area %; in data set [1] (setting [4]), 0.5 area %; in data set [1] (setting [5]), 1.1 area %; in data set [1] (setting [6]), 1.5 area %.

`CC(C)c1[nH]nc(O[C@@H]2O[C@H](CO)[C@@H](F)[C@H](O)[C@H]2O)c1Cc1ccc(CCCC(=O)NC(CO)(CO)CO)cc1` [Crystalline hydrate I]: the “hygroscopicity compared to the amorphous form” value in data set [2] is recorded as “less hygroscopic”. In addition, the “relative humidity at which starting phase B transformed to phase C” value in data set [3] (humidity lowered) is listed as “about 2%”. Moreover, the “relative humidity at which phase D transformed back into the starting phase” value in data set [3] (humidity raised) is on record as “around 20 % rel. hum”. Besides, in data set [3] (humidity raised again), the “relative humidity at which intermediate phase D formed” value is “about 10%”. Further, the “chemical stability during storage” value in data set [1] (40° C. under dry conditions (closed vials) and 75% r.h) was “better chemical stability”. The “Puirity (area %)” value in data set [1] (closed glass vials, 7 d) was 97.2 area %; in data set [1] (closed glass vials, 14 d), 97.1 area %; in data set [1] (closed glass vials, 28 d), 97.0 area %; in data set [1] (closed glass vials, Initial) it was 97.5 area %; in data set [1] (setting [4]) it was 97.3 area %; in data set [1] (setting [5]), 97.3 area %. In addition, the “Puirity (area %)” value in data set [1] (setting [6]) and in data set [1] (setting [7]) was 97.3 area % each time. The “Total increase (area %)” value in data set [1] (closed glass vials, 7 d) is 0.3 area %; in data set [1] (closed glass vials, 14 d), 0.4 area %; in data set [1] (closed glass vials, 28 d) it was 0.5 area %; in data set [1] (setting [4]), “≦0.2 area %”; in data set [1] (setting [5]), “≦0.2 area %”; in data set [1] (setting [6]), “≦0.2 area %”.
